Laboratory results as given in patent US8314215B2, “Mild chemically cleavable linker system” (The Board of Trustees of the Leland Stanford Junior …, priority 2006, dated 2012).

Assays:
Assay in all cases: LC/MS/MS identification of proteins from mouse liver extracts labeled with MTS-I-49
Type in all cases: biochemical
Liver carboxylesterase 4 = target: T1, Liver carboxylesterase 4 (Mus musculus, UniProt Q91WU0)
T1 construct: from tissue; host or cells: mouse liver extract
T1 sequence (Q91WU0 18-561): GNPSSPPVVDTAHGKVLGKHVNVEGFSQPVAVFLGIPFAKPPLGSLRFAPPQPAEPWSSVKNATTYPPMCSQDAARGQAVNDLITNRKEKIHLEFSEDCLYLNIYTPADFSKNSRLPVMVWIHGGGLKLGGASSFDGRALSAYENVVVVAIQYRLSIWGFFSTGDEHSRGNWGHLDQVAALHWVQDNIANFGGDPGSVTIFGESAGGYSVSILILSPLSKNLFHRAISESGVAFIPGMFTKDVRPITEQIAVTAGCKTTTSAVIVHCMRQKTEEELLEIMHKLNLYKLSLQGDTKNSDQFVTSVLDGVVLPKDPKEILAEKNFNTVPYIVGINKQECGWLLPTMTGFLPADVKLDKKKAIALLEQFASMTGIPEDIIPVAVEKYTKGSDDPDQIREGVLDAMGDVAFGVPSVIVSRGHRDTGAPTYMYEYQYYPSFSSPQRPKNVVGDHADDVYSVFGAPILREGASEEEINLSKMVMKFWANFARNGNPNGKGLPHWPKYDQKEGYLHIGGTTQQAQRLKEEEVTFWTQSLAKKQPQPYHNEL
From the text: (§1) (1991) Irreversible inhibition of serine proteases by peptide derivatives of (alpha-aminoalkyl)phosphonate diphenyl esters. Biochemistry 30, 485-493). However, it has not been used for any proteomic applications. We used MTS-I-49 to label mouse liver extracts and analyze the labeled sample by both SDS-PAGE (FIG. 5B) and by direct chemical cleavage or on bead digestion.
(§2) After enrichment on immobilized avidin, each of the three labeled proteomes (FIG. 5b) was divided into two aliquots. One was prepared for LC-MS/MS analysis by “on bead” digestion, while the other was chemically eluted and digested “in solution.” Proteins identified in each tissue lysate are listed with their accession number and theoretical molecular weight (MW). To compare both approaches, the number of identified peptides and percentage of amino acid sequence coverage is listed for each protein.
(§3) Proteins in the above Table were identified by LC/MS/MS analysis of on bead digested or chemically eluted proteins from mouse liver extracts labeled with MTS-I-49. […] BLAST database searching identified it as liver carboxylesterase 4. A number of additional endogenously biotinylated proteins were identified in the on-bead digested sample.

[1] = target: T2, glyceraldehyde-3-phosphate dehydrogenase (Mus musculus, UniProt P16858)
T2 construct: from tissue; host or cells: mouse liver extract
T2 sequence (P16858 whole entry): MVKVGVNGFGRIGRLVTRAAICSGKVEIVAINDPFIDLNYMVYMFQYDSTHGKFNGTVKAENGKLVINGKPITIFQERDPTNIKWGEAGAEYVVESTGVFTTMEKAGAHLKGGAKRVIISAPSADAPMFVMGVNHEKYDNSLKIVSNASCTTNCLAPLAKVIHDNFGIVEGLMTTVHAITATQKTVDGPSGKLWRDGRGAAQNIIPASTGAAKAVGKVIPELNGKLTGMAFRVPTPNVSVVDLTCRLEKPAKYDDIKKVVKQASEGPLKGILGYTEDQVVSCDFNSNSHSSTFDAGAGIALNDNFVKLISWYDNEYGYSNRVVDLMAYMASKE
From the text: as §1, §2, §3

[2] = target: T3, peroxisomal acyl-CoA oxidase (Mus musculus, UniProt Q9R0H0)
T3 construct: from tissue; host or cells: mouse liver extract
T3 sequence (Q9R0H0 1-661): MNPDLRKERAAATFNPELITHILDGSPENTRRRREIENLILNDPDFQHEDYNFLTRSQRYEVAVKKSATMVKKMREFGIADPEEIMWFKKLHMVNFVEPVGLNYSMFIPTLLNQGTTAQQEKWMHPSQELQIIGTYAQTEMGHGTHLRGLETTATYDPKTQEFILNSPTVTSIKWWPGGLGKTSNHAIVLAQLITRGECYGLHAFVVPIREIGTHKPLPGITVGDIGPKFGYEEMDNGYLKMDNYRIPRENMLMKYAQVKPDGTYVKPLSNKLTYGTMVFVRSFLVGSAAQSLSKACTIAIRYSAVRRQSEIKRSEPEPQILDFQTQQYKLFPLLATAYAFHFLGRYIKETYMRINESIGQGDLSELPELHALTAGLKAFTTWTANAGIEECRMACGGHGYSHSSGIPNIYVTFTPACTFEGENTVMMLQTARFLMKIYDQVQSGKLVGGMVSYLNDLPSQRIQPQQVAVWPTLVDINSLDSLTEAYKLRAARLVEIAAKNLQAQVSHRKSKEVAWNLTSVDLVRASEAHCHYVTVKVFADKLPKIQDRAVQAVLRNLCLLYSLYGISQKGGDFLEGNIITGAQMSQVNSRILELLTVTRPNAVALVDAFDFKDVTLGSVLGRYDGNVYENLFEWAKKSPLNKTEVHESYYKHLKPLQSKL
From the text: as §1, §2, §3

[3] = Liver carboxylesterase 4, chemically eluted, digested in solution
[4] = Liver carboxylesterase 4, on bead digestion
[5] = chemically eluted, digested in solution

For `C[C@H](NC(=O)c1ccc(N=Nc2cc(CCNC(=O)CCCC[C@@H]3SC[C@@H]4NC(=O)N[C@@H]43)ccc2O)cc1)C(=O)N[C@@H](C)C(=O)NC(Cc1ccccc1)P(=O)(Oc1ccccc1)Oc1ccccc1` (some centres unmarked) [MTS-I-49], which “Chemical Cleavage, amino acid sequence coverage” value (Liver carboxylesterase 4; [3]) is on record?
The value was 38%.

And the “Chemical Cleavage, number of identified peptides” value (shortened to “Chemical Cleavage, number”) (Liver carboxylesterase 4; [3])?
The value was 14.

And the “On Bead Digestion, amino acid sequence coverage” value (Liver carboxylesterase 4; [4])?
The value was 51%.

And the “On Bead Digestion, number of identified peptides” value (“On Bead Digestion, number” for short) (Liver carboxylesterase 4; [4])?
The value was 20.

What about the “target identification after chemical cleavage” value (Liver carboxylesterase 4; mouse liver extracts, hypothetical protein identified by BLAST as liver carboxylesterase 4) of the same compound?
Its value is “primary probe target”.

And the “Chemical Cleavage, number” value [1, 5]?
The value was 0.

And the “On Bead Digestion, amino acid sequence coverage” value ([1]; on bead digestion)?
The value was 10%.

And the “On Bead Digestion, number” value ([1]; on bead digestion)?
Its value is 2.

What about the “Chemical Cleavage, number” value [2, 5] of the same compound?
The value was 0.

What about the “On Bead Digestion, amino acid sequence coverage” value ([2]; on bead digestion) of the same compound?
The value was 4%.

And the “On Bead Digestion, number” value ([2]; on bead digestion)?
Its value is 2.
